Reference: patent US10647680B2, “Urea compound, preparation method therefor and medical use thereof” (Ancureall Pharmaceutical (Shanghai) Co., Ltd., priority 2016, dated 2020)

Columns and labels:
Format in all cases: cell-based
[1] = tested on: A431 (EGFR WT, amplification and high expression); experiment: In vitro growth inhibition (GI50), A431; conditions: Homo sapiens, A-431
From the text: (§1) Tumor cell line is an effective cell model for studying the inhibition of tumor cell growth or proliferation in vitro. In the present invention, a representative tumor cell line was selected to determine the cell growth inhibition activity of the present compound. All cell lines used were from ATCC, DSMZ, and the Cell Bank of the Chinese Academy of Sciences. Cell culture conditions and methods were in accordance with the requirements of each cell line. Cells were subcultured in vitro for no more than 3 passages each time, and as required, single-clone purification and identification of cell lines could be carried out.
(§2) The cell culture media used were RPMI1640 (Gibco), MEM (Gibco), McCOY'S5A (Gibco), and IMDM (Gibco). The complete medium was prepared by supplement with 5˜20% fetal calf serum (Gibco), 1% double-antibiotics (10000 units/mL penicillin and 10000 units/mL), 2 mM glutamine or 1 mM sodium pyruvate, respectively.
Human epidermal cancer cell line A431 (EGFR WT, amplification and high expression, from Shanghai Cell Bank of Chinese Academy of Sciences and ATCC), human lung cancer cell line NCI-H292 (EGFR WT, purchased from Shanghai Cell Bank of Chinese Academy of Sciences), NSCLC cell lines PC-9 and HCC827 (EGFR exon19 E746-A750 deletion, two cell lines are sensitive to the first-generation EGFR PTK inhibitor), NSCLC cell line NCI-H1975 (EGFR L858R/T790M and the first-generation EGFR inhibitor resistance, ATCC) were cultured with 1×RPMI1640 complete medium (supplement with 10% FBS), respectively.
(§3) Adherent cells were digested with 0.25% pancreatin-EDTA (Gibco). The suspension cells were collected by centrifugation. The supernatant was discarded and the cell pellet was resuspended and counted. Different cell concentrations (5˜10×10^4 cells/mL) were prepared according to the growth cycle of each cell line and then seeded on a 96-well plate (Corning), 100 μL/well. The cells were incubated overnight at 37° C., 5% CO2. The compounds were added to the cells on the second day with 2 wells in parallel. The final concentration of organic solvent shall not exceed 1%. The cells were continually incubated for 3 to 5 days, and then subjected to MTT assay.
(§4) The compound of the present invention and the control compound were dissolved in DMSO (Sigma) respectively, with the purity of more than 98%. The compound was stored in a concentration of 10 mM at −20° C. and diluted to 2- or 10-fold series prior to use.
(§5) Dojindo CCK8 reagent kit was used as MTT assay. THERMO […] FC meter was used as microplate reader.
(§6) For adherent cells, culture medium was removed and immediately replaced with the fresh prepared medium which contains 10% CCK8 reagent (100 μL/well). For the suspension cells, CCK8 was directly added to 10% of the final concentration. The cells were continually incubated for 1˜4 h. When a dark yellow color could be observed in the solvent control wells, the absorbance value at OD450 nm was measured and the cell growth rate was calculated according to the following formula: Cell Growth Rate (%)=100*(T−T0)/(C−T0) T=optical density of drug treatment cell well—optical density of blank control well; T0=optical density of cell well before drug treatment—optical density of blank control well; C=optical density of cell well of solvent control group—optical density of blank control well. The concentration value of 50% inhibition of cell growth (GI50) was calculated according to the drug concentration and cell growth rate curve. The experiment was independently repeated 1˜3 times, and subject to biological statistical analysis. 4. Experimental Results
Tumor cell growth inhibition test was performed by selecting representative compounds (compounds 4, 11, 12, 16, 27, 68, 71, 77, 79, 89 and 116 of the present invention). The initial concentration of the compound was 5,000 nM, then it was serially diluted by 2-fold or 10-fold to 0.01 nM. The GI50 value of each test compound was calculated according to the GI50 assay and calculation method. […]

[2] = tested on: ZR-75-30 (HER2/ErbB2 amp); experiment: In vitro growth inhibition (GI50), ZR-75-30; conditions: Homo sapiens
From the text: as §1, §2
Human gastric cancer cell line NCI-N87 (HER2/ErbB2 amp, ATCC), human breast cancer cell line HCC1954 (HER2/ErbB2 amp, ATCC) and ZR-75-30 (HER2/ErbB2 amp, ATCC), human adenocarcinoma cell line AU565 (HER2/ErbB2 amp, ATCC), human lung squamous cell carcinoma cell line NCI-H2170 (HER2/ErbB2 amp, ATCC), human bronchioalveolar adenocarcinoma cell line NCI-H1781 (HER2/ErbB2 Ins G776V,C mutant type, ATCC) were cultured with a 1×RPMI1640 complete medium (10% FBS), respectively. Human lung adenocarcinoma cell line Calu-3 (HER2/ErbB2 amp, ATCC) was cultured with 1×MEM, 10% FBS, 1% double antibody, 1% NEAA (Gibco), 2 mM glutamine and 1 mM sodium pyruvate. The human breast cancer cell line SK-BR-3 (HER2/ErbB2 amp, ATCC) was cultured with a McCOY'S5A complete medium (10% FBS).
as §3, §4, §5, §6
Tumor cell growth inhibition test was performed by selecting representative compounds (compounds 4, 11, 12, 16, 27, 68, 71, 77, 79, 89 and 116 of the present invention). […]

[3] = tested on: Kasumi-1 (c-Kit N822K mutant type); experiment: In vitro growth inhibition (GI50), Kasumi-1; conditions: Homo sapiens, Cell lines of leukemia, read-out: GI 50 Kasumi-1 Kit (N822K)
Summary of the method: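 After 3–5 days of treatment (top concentration 5,000 nM, serially diluted 2- or 10-fold to 0.01 nM, solvent ≤1%), viability was read by CCK8 at OD450. Growth rate was normalised to the time-zero and solvent-control wells, and GI50 was derived from the curve. Cultures in RPMI1640 + 10% FBS.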

Row | SMILES | GI50 [1] [µM] | GI50 [2] [µM] | GI50 [3] [µM]
1 | CC(C)(C)c1cc(NC(=O)Nc2ccc(-n3cnc4ccccc43)cc2)[nH]n1 [Compound 68, 1-(4-benzimidazol-1-yl-phenyl)-3-(5-tert-butyl-2H-pyrazol-3-yl)-urea] | > 2.5 | > 2.5 | > 1
2 | COCCOc1ccc2c(c1)ncn2-c1ccc(NC(=O)Nc2cc(C(C)(C)C)n[nH]2)cc1 [Compound 77, 1-(5-tert-butyl-2H-pyrazol-3-yl)-3-{4-[5-(2-methoxyl-ethoxyl)-benzimidazol-1-yl]-phenyl}-urea] | > 2.5 | > 2.5 | > 1
3 | CC(C)(C)c1cc(NC(=O)Nc2ccc(-n3cnc4cc(OCCN5CCOCC5)ccc43)cc2)[nH]n1 [Compound 89, 1-(5-tert-butyl-2H-pyrazol-3-yl)-3-{4-[5-(2-morpholin-4-yl-ethoxyl)-benzimidazol-1-yl]-phenyl}-urea] | > 2.5 | > 2.5 | 0.1 to 1
4 | COc1ccc2c(c1)ncn2-c1ccc(NC(=O)Nc2cc(C(C)(C)C)n[nH]2)cc1 [Compound 71, 1-(5-tert-butyl-2H-pyrazol-3-yl)-3-[4-(5-methoxyl-benzimidazol-1-yl)-phenyl]-urea] | > 2.5 | > 2.5 | > 1

Further lines, with some results ahead:

Row | GI50 [1] [µM] | SMILES | GI50 [2] [µM] | GI50 [3] [µM]
5 | > 2.5 | CC(C)(C)c1cc(NC(=O)Nc2ccc(-n3cnc4ccc(OCCN5CCOCC5)cc43)cc2)no1 [Compound 27, 1-(5-tert-butyl-isoxazol-3-yl)-3-{4-[6-(2morpholin-4-yl-ethoxyl)-benzimidazol-1-yl]-phenyl}-urea] | > 2.5 | > 1
6 | 1.56 | CC(C)(C)c1cc(NC(=O)Nc2ccc(-n3cnc4cc(OCCO)ccc43)cc2)no1 [Compound 11, 1-(5-tert-butyl-isoxazol-3-yl)-3-{4-[5-(2-hydroxy-ethoxyl)-benzimidazol-1-yl]-phenyl]-urea] | > 2.5 | > 1
7 | > 2.5 | CC(C)(C)c1cc(N)n(C(=O)Nc2ccc(-n3cnc4ccccc43)cc2)n1 [Compound 116, 5-amino-3-tert-butyl-pyrazol-1-carboxylic acid (4-benzimidazol-1-yl-phenyl)-amide] | > 2.5 | > 1
8 | > 2.5 | CC(C)(C)c1cc(NC(=O)Nc2ccc(-n3cnc4cc(OCCN5CCOCC5)ccc43)cc2)no1 [Compound 16, 1-(5-tert-butyl-isoxazol-3-yl)-3-{4-[5-(2-morpholin-4-yl-ethoxyl)-benzimidazol-1-yl]-phenyl}-urea] | > 2.5 | > 1
9 | 1.89 | CC(C)(C)c1cc(NC(=O)Nc2ccc(-n3cnc4cc(O)ccc43)cc2)no1 [Compound 4, 1-(5-tert-butyl-isoxazol-3-yl)-3-[4-(5-hydroxy-benzimidazol-1-yl)-phenyl]-urea] | > 2.5 | 0.1 to 1
10 | 2 | CC(C)(C)c1cc(NC(=O)Nc2ccc(-n3cnc4cc(OCCO)ccc43)cc2)[nH]n1 [Compound 79, 1-(5-tert-butyl-2H-pyrazol-3-yl)-3-{4-[5-(2-hydroxy-ethoxyl)-benzimidazol-1-yl]-phenyl]urea] | > 2.5 | > 1
